Reference: article PMC10312992 (ACS Omega, 2023)

Columns and labels:
α-glucosidase = α-glucosidase inhibition assay; type: biochemical; settings: at 0.5 mM; mean ± S.E.M., n = 3
[1] = test system: erythrocytes (heparinized bovine blood); assay: hemolytic activity; type: cell-based; settings: 35 min at 37 °C, 10^8 cells/mL; PBS negative control 2.45 ± 0.01%

Row | Compound | α-glucosidase (%) inhibition (α-glucosidase) | hemolysis (%) [1]
1 | COC(=O)c1ccccc1NC(=O)C(C)Sc1nnc(Cc2c[nH]c3ccccc23)o1 (stereo not shown) [8l, N-((2-Methoxycarbonyl)phenyl)-2-({5-((1H-indol-3-yl)methyl)-1,3,4-oxadiazol-2-yl}sulfanyl)propanamide] | 97.56 ± 0.57% | 8.16 ± 0.02%
2 | CCc1ccccc1NC(=O)C(C)Sc1nnc(Cc2c[nH]c3ccccc23)o1 (stereo not shown) [8h, N-(2-Ethylphenyl)-2-({5-((1H-indol-3-yl)methyl)-1,3,4-oxadiazol-2-yl}sulfanyl)propanmide] | 98.21 ± 0.31% | 0.83 ± 0.01%
3 | CC(Sc1nnc(Cc2c[nH]c3ccccc23)o1)C(=O)NCCc1ccccc1 (stereo not shown) [8d, N-(2-Phenethyl)-2-({5-((1H-indol-3-yl)methyl)-1,3,4-oxadiazol-2-yl}sulfanyl)propanamide] | 93.38 ± 0.38% | 0.05 ± 0.01%
4 | C[C@H]1O[C@H](O[C@H]2[C@H](O)[C@@H](O)[C@@H](O[C@H]3[C@H](O)[C@@H](O)C(O)O[C@@H]3CO)O[C@@H]2CO)[C@H](O)[C@@H](O)[C@@H]1N[C@H]1C=C(CO)[C@@H](O)[C@H](O)[C@H]1O (stereo partly shown) [acarbose, reference compound] | 92.23 ± 0.14% | 
